{"source": "patent US8173686B2", "about": "“Use of picoplatin to treat colorectal cancer” (priority 2006, dated 2012)", "origin": "cited, not measured here", "settings": "in vivo", "data": [{"smiles": "N.N.O=C([O-])C1(C(=O)[O-])CCC1.[Pt+2]", "note": "[carboplatin]", "values": [{"measurement": "main / dose-limiting toxicity", "result": "myelosuppression"}]}]}
